How the values were obtained:
[1] = test system: total HDAC enzyme (HeLa extract); experiment: In vitro inhibition of total HDAC enzyme activity (HDAC Fluorimetric Assay/Drug Discovery Kit, BIOMOL); format: biochemical, human
Experimental: Measurement of in vitro inhibition of total HDAC enzyme activity:
The in vitro inhibition of total HDAC enzyme was determined by HDAC Fluorimetric Assay/Drug Discovery Kit (BIOMOL) according to manufacture's instruction. • 1. Add Assay buffer, diluted trichostatin A or test inhibitor to appropriate wells of the microtiter plate. Following table lists examples of various assay types and the additions required for each test.
• 2. Add diluted HeLa extract or other HDAC sample to all wells except those that are to be “No Enzyme Controls” (Blank). • 3. Allow diluted Fluor de LyS™ Substrate and the samples in the microtiter plate to equilibrate to assay temperature (25° C.). • 4. Initiate HDAC reactions by adding diluted substrate (25 μl) to each well and mixing thoroughly. • 5. Allow HDAC reactions to proceed for desired length of time and then stop them by addition of Fluor de Lys™ Developer (50 μl). Incubate plate at room temperature (25° C.) for 10-15 min. • 6. Read samples in a microtiter-plate reading fluorimeter capable of excitation at a wavelength in the range 350-380 nm and detection of emitted light in the range 440-460 nm.

[2] = test system: HDAC3 (gdf11 reporter gene); experiment: HDAC subtype reporter gene assay, gdf11-promoter luciferase in HeLa cells; format: cell-based; details: Homo sapiens, M-HeLa, read-out: % of SAHA Response for HDAC3 at 10 μM (gdf11 reporter gene), 24 hours
Experimental: (§1) Measurement of inhibition of HDAC subtypes activity in cells by reporter gene assay: HDAC subtype selectivity inhibition assay of tested compounds was carried out by several reporter gene assays experiments. Briefly, HeLa cells were seeded in 96-well plates the day before transfection to give a confluence of 50-80%. Cells were transfected with one of reporter gene plasmids containing a promoter sequences or response elements upstream of a luciferase gene construct using FuGene6 transfection reagent according to the manufacturer's instructions (Roche). The promoters or response elements including p21-promoter, gdf11-promoter, MEF-binding element (MEF2), Nur77-promoter were fused upstream to the luciferase gene reporter construct. For normalizing the transfection efficiency, a GFP expression plasmid was cotransfected. Cells were allowed to express protein for 24 hours followed by addition of individual compounds or the vehicle (DMSO). 24 hours later, the cells were harvested and the luciferase assays were performed using the luciferase assay kit according to the manufacturer's instructions (Promega). To normalize the data from the luciferase assays, GFP activity from transfected cells was measured in a microtiter-plate reading fluorimeter capable of excitation at a wavelength at 485 nm and detection of emitted light at 527 nm.

[3] = test system: HDAC7 (Nur77 reporter gene); experiment: HDAC subtype reporter gene assay, Nur77-promoter luciferase in HeLa cells; format: cell-based; details: Homo sapiens, M-HeLa, read-out: % of SAHA Response for HDAC7 at 10 μM (Nur77 reporter gene), 24 hours
Experimental: as §1

[4] = test system: lysine acetylation; experiment: ELISA assay of acetylation of lysine in HeLa cells; format: cell-based; details: Homo sapiens, M-HeLa, 24 hours
From the text: Measurement of acetylation activity in cells on substrates:
ELISA Assay of Acetylation of Lysine
This assay is used to measure in vivo inhibition of HDAC6 in a cytoblot assay.
Materials and Reagent: • 1. 24-well tissue culture • 2. DMEM Medium containing 10% FBS • 3. 96-well white plate • 4. HeLa cell line • 5. M-PER Mammalian Protein Extraction Reagent (Pierce) • 6. Bradford assay reagent • 7. Acetylated-lysine polyclonal Antibody (Cell Signaling) • 8. HRP-labeled anti-rabbit IgG (Upstate) • 9. Coating Buffer: 15 mM Na2CO3, 35 mM NaHCO3 (pH 9.6) • 10. 10×PBS: 0.58M Na2HPO4, 0.17M NaH2PO4, 0.68M NaCl (pH 7.4) • 11. Wash Buffer:1×PBS containing 0.05% Tween-20 (PBST) • 12. Blocking Buffer:10 mg/ml bocine serum albumin (BSA) in PBS • 13. Antibody Dilution Buffer: 5 mg/ml BSA in PBST • 14. Enhanced chemiluminescence (ECL) (Amersham)
Procedure for performing the assay in 96-well plate: • 1. HeLa cells were seeded at a density of 60000 cells/500 μl/well in 24-well plate and incubated at 37° C. for 24 hours. • 2. Compounds were added and incubated for 24 hours at 37° C. • 3. Culture medium was removed, then washes the cells twice with ice-cold PBS. • 4. Add 100 μl/well of Protein Extraction Reagent and gently shake the mixture for 5 minutes. • 5. Collect the lysate to a 96-well plate respectively. Determine the concentration of protein by Bradford assay. • 6. Coat the wells of a 96-well white plate with 100 μl/well of 2.5 μg whole cell protein in Coating Buffer by incubating overnight at 4° C. • 7. Discard the uncoated proteins and wash the coated wells three times with 200 μl/well of PBST. • 8. Block coated wells by incubating the plate with 200 μl/well of Blocking Buffer for 1 hour at 37° C. • 9. Wells were aspirated and washed three times with 200 μl/well of PBST. • 10. After aspirating, 50 μl/well of Antibody Dilution Buffer containing acetylated-lysine polyclonal antibody (1:1000) were added to each well and incubated for 2 hour at 37° C. • 11. Wells were aspirated and washed three times with 200 μl/well of PBST. • 12. 50 μl/well of Antibody Dilution Buffer containing HRP-labeled anti-rabbit IgG (1:2000) were added to each well and incubated for 2 hour at 37° C. • 13. Wells were aspirated and washed three times with 200 μl/well of PBST. • 14. Wells were washed three times with 200 μl/well of purified water. • 15. Add 50 μl/well of ECL mixture, then read the plates on the plate reader.

[5] = test system: Hut-78 human T lymphoma cell line; experiment: Anti-cell proliferation (MTS), Hut-78; format: cell-based; details: HuT78, 72 hours
Experimental: (§2) Measurement of in vivo cell proliferation:
(§3) Tumor cells were trypsinized and plated into 96-well plates at 3,000 per well and incubated in complete medium with 10% FBS for 24 hours. Compounds were added over a final concentration range of 100 μmol/L to 100 nmol/L in 0.1% DMSO and incubated for 72 hours in complete medium. The effects on proliferation were determined by addition of MTS reagent (Promega) according to the instruction, incubation for 2 hours at 37° C. in CO2 incubator, and record the absorbance at 490 nm using an ELISA plate reader.

[6] = test system: HL60 human leukemia cell line; experiment: Anti-cell proliferation (MTS), HL60; format: cell-based; details: HL-60, 72 hours
Experimental: as §2, §3

[7] = test system: HeLa human cervical cancer cell line; experiment: Anti-cell proliferation (MTS), HeLa; format: cell-based; details: 72 hours
Experimental: as §2, §3

[8] = test system: A549 human lung cancer cell line; experiment: Anti-cell proliferation (MTS), A549; format: cell-based; details: 72 hours
Experimental: as §2, §3

Row | SMILES | % of Inhibition on Total HDAC Enzyme at 30 μM [1] [%] | GI50 [5] [µM] | GI50 [6] [µM] | GI50 [7] [µM] | GI50 [8] [µM] | Emax at 10 µM [2] [%] | Emax at 10 µM [3] [%] | fold induction at 10 µM [4]
1 | Cc1[nH]c(/C=N/N=C2\C(=O)Nc3ccc(F)cc32)c(C)c1C(=O)NCCCCCCCC(=O)Nc1ccc(F)cc1N [Example 27, 8-(5-(((5-fluoro-2-oxoindolin-3-ylidene)hydrazono)methyl)-2,4-dimethyl-1H-pyrrole-3-carboxamido)-N-(2-amino-4-fluorophenyl)octanamide] | 5 | 6.92 | 5.89 | > 100 | > 100 | 6 | 6 | 2.13
2 | Cc1[nH]c(/C=N/N=C2\C(=O)Nc3ccc(F)cc32)c(C)c1C(=O)NCCCCCCCC(=O)NO [Example 26, 8-(5-(((5-fluoro-2-oxoindolin-3-ylidene)hydrazono)methyl)-2,4-dimethyl-1H-pyrrole-3-carboxamido)-N-hydroxyoctanamide] | 98 | 14.1 | 9.33 | 25.7 | 35.5 | 38 | 11 | 2.42
3 | Nc1cc(F)ccc1NC(=O)CCCCNC(=O)c1cccc(/C=C2\C(=O)Nc3ccc(F)cc32)c1 [Example 50, 5-(3-((5-fluoro-2-oxoindolin-3-ylidene)methyl)benzamido)-N-(2-amino-4-fluorophenyl)pentanamide] | −3 | 6.76 | 3.98 | 20.9 | 35.5 | 4 | 12 | 1.08
4 | Nc1cc(F)ccc1NC(=O)CCCCCNC(=O)c1ccc(/C=C2\C(=O)Nc3ccc(F)cc32)cc1 [Example 40, 6-(4-((5-fluoro-2-oxoindolin-3-ylidene)methyl)benzamido)-N-(2-amino-4-fluorophenyl)hexanamide] | 22 | 4.17 | 5.75 | 33.9 | 36.3 | 13 | 9 | 1.5
5 | Nc1cc(F)ccc1NC(=O)CCCCCCCNC(=O)c1ccc(/C=N/N=C2\C(=O)Nc3ccc(F)cc32)cc1 [Example 36, 8-(4-(((5-fluoro-2-oxoindolin-3-ylidene)hydrazono)methyl)benzamido)-N-(2-amino-4-fluorophenyl)octanamide] | −16 | 10.7 | 14.8 | 55 | 30.2 | 6 | 7 | 1.35
6 | Cc1[nH]c(/C=N/N=C2\C(=O)Nc3ccc(F)cc32)c(C)c1C(=O)NCCCCCCCC(=O)Nc1ccccc1N [Example 28, 8-(5-(((5-fluoro-2-oxoindolin-3-ylidene)hydrazono)methyl)-2,4-dimethyl-1H-pyrrole-3-carboxamido)-N-(2-aminophenyl)octanamide] | 18 | 4.27 | 4.37 | 28.2 | 36.3 | 26 | 16 | 1.7
7 | Nc1ccccc1NC(=O)CCCCCNC(=O)c1ccc(/C=C2\C(=O)Nc3ccc(F)cc32)cc1 [Example 39, 6-(4-((5-fluoro-2-oxoindolin-3-ylidene)methyl)benzamido)-N-(2-aminophenyl)hexanamide] | 31 | 4.17 | 4.17 | 22.9 | 28.8 | 41 | 29 | 1.73

More lines, main results first:

Row | % of Inhibition on Total HDAC Enzyme at 30 μM [1] [%] | GI50 [5] [µM] | GI50 [6] [µM] | GI50 [7] [µM] | GI50 [8] [µM] | SMILES | Emax at 10 µM [2] [%] | Emax at 10 µM [3] [%] | fold induction at 10 µM [4]
8 | 40 | 3.89 | 2.46 | 18.2 | 24 | Nc1ccccc1NC(=O)CCCCCCCNC(=O)c1cccc(/C=C2\C(=O)Nc3ccc(F)cc32)c1 [Example 54, 8-(3-((5-fluoro-2-oxoindolin-3-ylidene)methyl)benzamido)-N-(2-aminophenyl)octanamide] | 52 | 25 | 1.34
9 | 30 | 4.37 | 2.95 | 11 | 19.5 | Nc1ccccc1NC(=O)CCCCCNC(=O)c1cccc(/C=C2\C(=O)Nc3ccc(F)cc32)c1 [Example 44, 6-(3-((5-fluoro-2-oxoindolin-3-ylidene)methyl)benzamido)-N-(2-aminophenyl)hexanamide] | 48 | 35 | 1.42
10 | 93 | 4.57 | 5.62 | 17.4 | 28.8 | O=C(CCCCCCCNC(=O)c1cccc(/C=C2\C(=O)Nc3ccc(F)cc32)c1)NO [Example 56, 8-(3-((5-fluoro-2-oxoindolin-3-ylidene)methyl)benzamido)-N-hydroxyoctanamide] | 56 | 27 | 1.7

Reference: patent US7863315B2, “2-indolinone derivatives as selective histone deacetylase inhibitors” (Shenzhen Chipscreen Biosciences, Ltd., priority 2008, dated 2011)
